Measurements as given in US7361662B2, “Pyridopyrimidinone compounds, method for production thereof and medicaments comprising the same” (Les Laboratoires Servier, priority 2002, dated 2008).

Tested on: obese ob/ob mouse (model of obesity-associated insulin resistance)
Assay: Hypolipaemic activity in the obese ob/ob mouse
Type: in vivo
Protocol: The products of the invention were tested in vivo in the obese ob/ob mouse, used as a model of obesity-associated insulin resistance.

CN(C)C(=N)N=C(N)N [metformin]
reduction of triglycerides (250 mg/kg per os): the same reduction is obtained

CCCN(CCC)c1nc2c(N3CCCCCC3)nc(N3CCOCC3)cc2c(=O)[nH]1 [Example 6, 8-(1-Azepanyl)-2-(dipropylamino)-6-(4-morpholinyl)pyrido[3,4-d]pyrimidin-4(3H)-one]
reduction of triglycerides (125 mg/kg per os): significantly reduces the triglycerides
